In PMC4239038, “The Potent Cdc7-Dbf4 (DDK) Kinase Inhibitor XL413 Has Limited Activity in Many Cancer Cell Lines and Discovery of Potential New DDK Inhibitor Scaffolds” (PLoS ONE, 2014):
“And” between values parts separate entries of the source, which are not always exact repeats. Equal values may be shown once. Where a name gives a salt, the structure may show the parent alone. Read-outs that look alike come from different tables or passages of the source.

Tests used:
DDK = conditions: read-out: DDK IC50 (in vitro), cited from earlier work
[1] = tested on: Mcm2 Serine 53 phosphorylation in HCC1954 cells; assay: Immunoblot of DDK-dependent Mcm2 phosphorylation; type: cell-based
Experimental: Whole cell extracts were prepared by re-suspending the pellets in RIPA buffer (150 mM NaCl, 1% NP-40, 0.5% sodium deoxycholate, 0.1% SDS, 50 mM Tris HCl, pH 8) containing protease inhibitors (100 µM PMSF, 1 mM Benzamide, 2.5 µg/ml Pepstatin A, 10 µg/ml Leupeptin, and 10 µg/ml Aprotinin) and phosphatase inhibitors (1 mM each NaF, Na3VO4 and Na4P2O7). Protein concentration was measured using the BCA protein assay kit (Pierce) according to manufacturer's protocol. Equal amounts of protein were subjected to SDS-PAGE and transferred to a nitrocellulose membrane (Millipore). Transfer efficiency and equal loading was confirmed by Ponceau S staining. Following primary and secondary antibody treatments, proteins were visualized using SuperSignal West Pico solutions (Thermo Scientific). Anti-Mcm2 and anti-S53-phospho-Mcm2 antibodies were purchased from Bethyl Laboratories; anti-β-actin was from Sigma; anti-mouse and anti-rabbit HRP antibodies were from GE Healthcare; and anti-Cdc7 and anti-Dbf4 antibodies were described previously.
Effective cellular uptake of the DDK inhibitor should compromise DDK activity in vivo. Among the many targets of DDK are components of the replicative Mcm2–7 helicase. Serine 53 of Mcm2 subunit is a well-characterized target site for DDK mediated phosphorylation. We quantitated levels of phosphorylation on this site as a measure of DDK activity in vivo. […] Cells were then harvested at 0, 24, 48, and 72 hours post drug addition to measure viable cells and Mcm2 phosphorylation by immunoblotting.

purified DDK [2] = target: T1, purified DDK (Homo sapiens, UniProt O00311); assay: DDK thermal stability shift assay (TSA); type: binding
T1 construct: His6-Smt3 (SUMO) (N, cleaved yes); made in house; host or cells: E. coli BL21-RIPL (pKT37, pETDuet-1 vector)

HCC1954 cells [3] = assay: Cell viability, CellTiter-Glo; type: cell-based; conditions: Homo sapiens, HCC1954, 72 hrs post drug addition
purified DDK [4] = target: T1, purified DDK; assay: In vitro (γ)-32P ATP DDK kinase assay (DDK auto-phosphorylation); type: biochemical; conditions: increasing inhibitor concentrations
HCC1954 cells [5] = assay: Caspase 3/7 activity (apoptosis); type: cell-based; conditions: for Apoptosis induction (Caspase 3/7 activity): HCC1954, 24 hours
Experimental: Caspase 3/7 activity and viable cell number were then measured using the Caspase-Glo 3/7 assay (Promega) and CellTiter-Glo assay (Promega), respectively.

HCT116 (p53-/-) cells = assay: Cell viability, CellTiter-Glo; type: cell-based; conditions: Homo sapiens, HCT-116, 72 hrs post drug addition
HCT116 (p53+/+) cells = assay: Cell viability, CellTiter-Glo; type: cell-based; conditions: Homo sapiens, HCT-116; HCT116 (p53+/+), 72 hrs post drug addition
Eight tumor cell lines = assay: Cell viability at 5 µM inhibitor, cell line panel; type: cell-based; conditions: 72 hrs, relative to vehicle controls
MDA-MB-453 = assay: Cell viability at 5 µM inhibitor; conditions: MDA-MB-453, 5 µM, 72 hrs, relative to vehicle
human cell lines = conditions: average from 61 human cell lines ref 42,43; read-out: Cellular Proliferation IC50; cited from earlier work
[6] = tested on: Mcm2 phosphorylation in Colo-205 cells; assay: Immunoblot of DDK-dependent Mcm2 phosphorylation; type: cell-based; conditions: Colo-205, 5 µM, 24 hours
MCF-7 = assay: Cell viability at 5 µM inhibitor; conditions: MCF-7, 5 µM, 72 hrs, relative to vehicle
Colo-205 cells [7] = conditions: Colo-205, 24 hours
Colo-205 cells [8] = assay: Cell viability, CellTiter-Glo; type: cell-based; conditions: Homo sapiens; Colo-205, 72 hrs post drug addition
purified Cdk9 = tested on: purified Cdk9; design: method as in PMID 18469809; conditions: purified Cdk9 ref 43; cited from earlier work
PKR = tested on: PKR; design: method as in PMID 12890478; conditions: cited from earlier work
[9] = titration, beginning at a 1 µM concentration
[10] = library screen, 20 µM compound, 20 µM

T1 sequence (O00311 whole entry): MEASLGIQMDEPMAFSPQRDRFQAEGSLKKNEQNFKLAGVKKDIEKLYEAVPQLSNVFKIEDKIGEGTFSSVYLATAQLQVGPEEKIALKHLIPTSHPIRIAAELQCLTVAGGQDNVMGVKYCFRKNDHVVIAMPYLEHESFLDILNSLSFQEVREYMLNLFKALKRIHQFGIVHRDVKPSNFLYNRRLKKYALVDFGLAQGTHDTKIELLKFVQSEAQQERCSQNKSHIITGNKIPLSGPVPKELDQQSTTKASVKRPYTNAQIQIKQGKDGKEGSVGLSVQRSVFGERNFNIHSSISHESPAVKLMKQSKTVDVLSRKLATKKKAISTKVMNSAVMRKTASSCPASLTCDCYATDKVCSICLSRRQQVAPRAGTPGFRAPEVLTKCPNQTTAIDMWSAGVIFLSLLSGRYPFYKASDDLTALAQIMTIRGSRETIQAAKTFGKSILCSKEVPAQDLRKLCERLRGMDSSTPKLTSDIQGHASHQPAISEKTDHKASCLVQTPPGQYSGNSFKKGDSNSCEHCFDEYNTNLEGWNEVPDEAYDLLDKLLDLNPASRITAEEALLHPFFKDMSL
T1 sequence (Q9UBU7 341-674 partner limits assumed): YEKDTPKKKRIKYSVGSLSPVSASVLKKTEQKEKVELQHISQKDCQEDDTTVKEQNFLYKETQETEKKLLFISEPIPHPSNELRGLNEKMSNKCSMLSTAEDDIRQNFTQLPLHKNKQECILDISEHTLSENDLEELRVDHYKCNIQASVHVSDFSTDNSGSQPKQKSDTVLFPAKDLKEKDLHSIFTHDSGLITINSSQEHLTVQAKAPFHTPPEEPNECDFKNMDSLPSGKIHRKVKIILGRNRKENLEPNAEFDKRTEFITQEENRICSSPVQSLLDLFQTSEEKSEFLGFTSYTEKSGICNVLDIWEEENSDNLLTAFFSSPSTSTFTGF

O=C1N=C(NCc2ccccc2)S/C1=C\c1c[nH]c2ncccc12 [(5Z)-2-(Benzylamino)-5-(1H-pyrrolo[2,3-b]pyridin-3-ylmethylene)-1,3-thiazol-4(5H)-one]
IC50 (DDK): 9 nM

O=C1NC(=O)c2c1c1c3ccccc3n3c1c1c2c2ccccc2n1[C@H]1CC[C@@H]3O1 [SB 218078]
Mcm2 phosphorylation ([1]; HCC1954, SB 218078): modestly inhibits Mcm2 phosphorylation
ΔTm (purified DDK [2]; [9]): ≥ 2 °C
IC50 (HCC1954 cells [3]; HCC1954, 72 h): 2420 nM
IC50 (purified DDK [4]): 19.3 nM
Apoptosis induction (Caspase 3/7 activity) (HCC1954 cells [5]): low levels of apoptosis were induced

O=C1NCCc2[nH]c(-c3ccncc3)cc21 [PHA-767491, 2-pyridin-4-yl-1,5,6,7-tetrahydro-pyrrolo[3,2-c]pyridin-4-one]
IC50 (HCT116 (p53-/-) cells): 1000 nM
IC50 (HCT116 (p53+/+) cells): 450 nM
Anti-proliferative activity (Eight tumor cell lines): significantly inhibited proliferation in all cell lines tested
Inhibition of proliferation (MDA-MB-453): 2.5 fold
Mcm2 phosphorylation ([1]; HCC1954, 1 µM, 24 to 72 hours): very little residual Mcm2 phosphorylation
Mcm2 phosphorylation ([1]; HCC1954, 2 µM, by 24 hours): completely abolished Mcm2 phosphorylation
IC50 (human cell lines): 3170 nM
Mcm2 phosphorylation [6]: completely abolished Mcm2 phosphorylation
Inhibition of proliferation (MCF-7): 2 fold
IC50 (DDK; purified kinase ref 42,43): 10 nM
IC50 (HCC1954 cells [3]): 640 nM
Apoptosis induction (Caspase 3/7 activity) (Colo-205 cells [7]): induced apoptosis
IC50 (Colo-205 cells [8]): 1300 nM
IC50 (purified Cdk9): 34 nM
Apoptosis induction (Caspase 3/7 activity) (HCC1954 cells [5]): induced apoptosis

NC(=O)c1cc(-c2ccnc(N)n2)[nH]c1-c1ccccc1 [5-(2-Amino-pyrimidin-4-yl)-2-phenyl-1H-pyrrole-3-carboxamide]
IC50 (DDK): 22 nM

Nc1nccc(-c2cc3c([nH]2)[C@@H](CCF)CNC3=O)n1 [[(S )-2-(2-aminopyrimidin-4-yl)-7-(2-fluoro-ethyl)-1,5,6,7-tetrahydropyrrolo[3,2-c]pyridin-4-one]
IC50 (DDK): 2 nM

c1ccc2c(-c3ccncc3)c[nH]c2c1 [Rockout, 3-pyridin-4-yl-1H-indole]
ΔTm (purified DDK [2]; [9]): ≥ 2 °C
IC50 (purified DDK [4]): 860 nM

O=C1Nc2ccc3ncsc3c2/C1=C/c1cnc[nH]1 [PKR inhibitor, (8Z)-8-(1H-imidazol-5-ylmethylidene)-6H-pyrrolo[2,3-g][1,3]benzothiazol-7-one]
IC50 (PKR): 210 nM
Mcm2 phosphorylation ([1]; HCC1954, 2 µM PKR inhibitor): strongly inhibited Mcm2 phosphorylation
ΔTm at 20 µM (purified DDK [2]; library screen, 20 µM compound): 2.4 °C
ΔTm (purified DDK [2]; [9]): ≥ 2 °C
IC50 (HCC1954 cells [3]; HCC1954, 72 h): 1700 nM
IC50 (purified DDK [4]): 67.5 nM and ~70 nM
Increase of Caspase 3/7 activity relative to the DMSO control (HCC1954 cells [5]; HCC1954, 2 µM, 24 hours): 20 fold

N#Cc1ccc2ccn(-c3cc(N)ncn3)c2n1 [1-(6-aminopyrimidin-4-yl)pyrrolo[2,3-b]pyridine-6-carbonitrile]
IC50 (DDK): 9 nM

CC(C)[C@H](CO)Nc1nc(Nc2cccc(Cl)c2)c2ncn(C(C)C)c2n1 [Purvalanol A]
ΔTm at 20 µM (purified DDK [2]; library screen, 20 µM compound): 0.2 °C

Cc1ccc([N+](=O)[O-])cc1S(=O)(=O)N(C)/N=C/c1cnc2ccc(Br)cn12 [PI 3-Kα Inhibitor VIII, N-((1E)-(6-Bromoimidazo[1,2-a]pyridin-3-yl)methylene)-N'-methyl-N''-(2-methyl-5-nitrobenzene)sulfonohydrazide, HCl]
ΔTm at 20 µM (purified DDK [2]; library screen, 20 µM compound): 2.6 °C
IC50 (purified DDK [4]): 1300 nM

DNA-PK Inhibitor III
ΔTm (purified DDK [2]; library screen, 20 µM compound): 0.2 °C

O=C1Nc2ccc(I)cc2C1=Cc1cc(Br)c(O)c(Br)c1 [GW 5074, 3-(3,5-Dibromo-4-hydroxy-benzylidene)-5-iodo-1,3-dihydro-indol-2-one]
ΔTm (purified DDK [2]; library screen, 20 µM compound): 3.5 °C

CNc1cc2c(Nc3cccc(Br)c3)ncnc2cn1 [PD 158780]
ΔTm (purified DDK [2]; library screen, 20 µM compound): 0.2 °C

CS(=O)(=O)c1ccc(-c2nc(-c3ccc(F)cc3)c(-c3ccncc3)[nH]2)cc1 [SB 203580, Sulfone]
ΔTm (purified DDK [2]; 20 µM): 0.5 °C

Oc1c2ccccc2c2c3c(cccc13)N=N2 [SP 600125]
ΔTm at 20 µM (purified DDK [2]; library screen, 20 µM compound): 0.2 °C

COc1cc2ncnc(N3CCN(C(=O)Nc4ccc(Oc5ccccc5)cc4)CC3)c2cc1OC
ΔTm (purified DDK [2]; library screen, 20 µM compound): 0 °C

O=C1NC(=O)c2c1c1c3ccccc3[nH]c1c1[nH]c3ccccc3c21 [Arcyriaflavin A]
ΔTm (purified DDK [2]; library screen, 20 µM compound): 0.5 °C

O=C1Cc2c([nH]c3ccc([N+](=O)[O-])cc23)-c2ccccc2N1 [Alsterpaullone]
ΔTm at 20 µM (purified DDK [2]; library screen, 20 µM compound): 0.5 °C

Bisindolylmaleimide III, Hydrochloride
ΔTm (purified DDK [2]; library screen, 20 µM compound): 51 °C

Cn1nc2c3c(cccc31)C(=O)c1ccccc1-2 [JNK Inhibitor, Negajve Control]
ΔTm (purified DDK [2]; library screen, 20 µM compound): 0 °C

O=c1cc(N2CCOCC2)oc2c1ccc1ccccc12 [NU 7026]
ΔTm (purified DDK [2]; [10]): 1.2 °C

Wee1/Chk1 Inhibitor
ΔTm (purified DDK [2]; library screen, 20 µM compound): 0 °C

CN(C)CCCn1cc(C2=C(c3c[nH]c4ccccc34)C(=O)NC2=O)c2ccccc21 [GF 109203X]
ΔTm (purified DDK [2]; [10]): 0.6 °C

Cc1[nH]c(/C=C2\C(=O)Nc3ccc(S(=O)(=O)Cc4c(Cl)cccc4Cl)cc32)c(C)c1C(=O)N1CCC[C@@H]1CN1CCCC1 [PHA 665752]
ΔTm at 20 µM (purified DDK [2]; library screen, 20 µM compound): 0.4 °C

Cn1cnc2c(NCc3ccccc3)nc(NCCO)nc21 [Olomoucine]
ΔTm at 20 µM (purified DDK [2]; library screen, 20 µM compound): 0.1 °C

C=CCc1c(C)nc2sc3c(N)ncnc3c2c1C [7,9-dimethyl-8-prop-2-enylpyrido[2,3]thieno[2,4-d]pyrimidin-4-amine]
IC50 (DDK): 20 nM

COc1cc2c(cc1OC)-c1[nH]nc(Nc3cccc(F)c3)c1C2
ΔTm (purified DDK [2]; library screen, 20 µM compound): 0.3 °C

COc1cc2ncc(-c3ccccc3)nc2cc1OC [AG 1296]
ΔTm (purified DDK [2]; library screen, 20 µM compound): 0 °C

O=C(Nc1cc(Cl)cc2c1[nH]c1cnccc12)c1cccnc1 [IKK Inhibitor X]
ΔTm (purified DDK [2]; library screen, 20 µM compound): 0 °C

NC(=O)Nc1sc(-c2ccccc2)cc1C(N)=O [IKK-2 Inhibitor VI]
ΔTm (purified DDK [2]; library screen, 20 µM compound): 1.2 °C

CCN(CC)C(=O)c1ccc(Nc2nc(OCC3CCCCC3)c3[nH]cnc3n2)cc1 [Cdk2 Inhibitor IV, NU6140]
ΔTm (purified DDK [2]; library screen, 20 µM compound): 0.2 °C

Nc1[nH]nc2nnc(-c3c(-c4ccccc4)nn4ccccc34)cc12 [ERK Inhibitor II, FR180204]
ΔTm (purified DDK [2]; library screen, 20 µM compound): 0 °C

NC(=O)Nc1cc(-c2ccccc2)sc1C(N)=O [IKK-2 Inhibitor XI]
ΔTm (purified DDK [2]; library screen, 20 µM compound): 0.3 °C

Nc1ccc(-c2cccc3c(=O)cc(N4CCOCC4)oc23)cc1 [PI 828]
ΔTm (purified DDK [2]; library screen, 20 µM compound): 0.6 °C

O=C1Nc2ccc(Cl)cc2/C1=C/c1cc(Cl)c(O)c(Cl)c1 [PKR Inhibitor, NegaKve Control]
ΔTm (purified DDK [2]; library screen, 20 µM compound): 0.2 °C
